Several values for one entry are separate records, joined by “and”; a condition that tells them apart may be missing. Identical values can stand only once. Counter-ions that a name gives are not always drawn.
How the values were obtained:
[1] = target: Replicase polyprotein 1ab (Middle East respiratory syndrome-related coronavirus (isolate UnitedKingdom/H123990006/2012) (Betacoronavirus England 1) (Humancoronavirus EMC), UniProt K9N7C7); assay: biochemical; assay type: functional
[2] = target: Replicase polyprotein 1ab (Middle East respiratory syndrome-related coronavirus (isolate UnitedKingdom/H123990006/2012) (Betacoronavirus England 1) (Humancoronavirus EMC)) (UniProt K9N7C7); conditions: at 10 µM
[3] = target: Chymotrypsin (Homo sapiens) (UniProt Q99895+P17538+P40313+Q6GPI1); assay: Chymotrypsin inhibition percentage at 10 µM by FRET kind of response from peptide substrate; assay type: functional
Sequence of Chymotrypsin (Homo sapiens) (Q6GPI1 whole entry, looked up, chain 1 of 4): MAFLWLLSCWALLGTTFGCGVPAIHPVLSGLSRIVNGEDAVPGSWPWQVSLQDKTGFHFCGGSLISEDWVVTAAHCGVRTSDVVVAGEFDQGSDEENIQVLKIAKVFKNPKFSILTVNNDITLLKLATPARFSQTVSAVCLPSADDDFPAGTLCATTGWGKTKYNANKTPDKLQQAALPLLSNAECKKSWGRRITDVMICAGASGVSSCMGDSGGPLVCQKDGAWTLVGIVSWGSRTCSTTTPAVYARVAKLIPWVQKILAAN
Sequence of Chymotrypsin (Homo sapiens) (P40313 whole entry, looked up, chain 2 of 4): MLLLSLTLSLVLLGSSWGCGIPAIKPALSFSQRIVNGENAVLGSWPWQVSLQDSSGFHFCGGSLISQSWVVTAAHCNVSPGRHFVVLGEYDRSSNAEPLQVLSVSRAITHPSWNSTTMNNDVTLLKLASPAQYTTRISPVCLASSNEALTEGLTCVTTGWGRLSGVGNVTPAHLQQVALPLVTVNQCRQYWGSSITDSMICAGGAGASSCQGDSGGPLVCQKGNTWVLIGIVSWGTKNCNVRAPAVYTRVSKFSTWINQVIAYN
Sequence of Chymotrypsin (Homo sapiens) (P17538 whole entry, looked up, chain 3 of 4): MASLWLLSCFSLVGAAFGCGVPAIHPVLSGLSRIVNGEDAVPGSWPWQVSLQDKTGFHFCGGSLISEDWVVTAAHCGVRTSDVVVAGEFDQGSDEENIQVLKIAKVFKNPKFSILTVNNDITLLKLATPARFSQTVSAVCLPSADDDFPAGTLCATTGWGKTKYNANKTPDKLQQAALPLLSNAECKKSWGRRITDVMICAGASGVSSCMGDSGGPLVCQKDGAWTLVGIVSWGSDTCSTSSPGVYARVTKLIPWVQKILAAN
Sequence of Chymotrypsin (Homo sapiens) (Q99895 whole entry, looked up, chain 4 of 4): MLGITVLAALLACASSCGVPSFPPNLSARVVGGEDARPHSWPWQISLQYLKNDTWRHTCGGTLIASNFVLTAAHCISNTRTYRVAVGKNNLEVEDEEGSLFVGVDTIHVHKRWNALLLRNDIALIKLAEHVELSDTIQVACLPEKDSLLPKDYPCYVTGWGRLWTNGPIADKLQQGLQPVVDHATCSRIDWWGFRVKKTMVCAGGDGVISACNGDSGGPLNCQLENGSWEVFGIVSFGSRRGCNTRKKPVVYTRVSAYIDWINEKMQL

[4] = target: Replicase polyprotein 1ab (Severe acute respiratory syndrome coronavirus 2, UniProt P0DTD1); assay: biochemical; assay type: functional

Sequence of Replicase polyprotein 1ab (Middle East respiratory syndrome-related coronavirus (isolate UnitedKingdom/H123990006/2012) (Betacoronavirus England 1) (Humancoronavirus EMC), UniProt K9N7C7) (K9N7C7 3248-3553 limits assumed): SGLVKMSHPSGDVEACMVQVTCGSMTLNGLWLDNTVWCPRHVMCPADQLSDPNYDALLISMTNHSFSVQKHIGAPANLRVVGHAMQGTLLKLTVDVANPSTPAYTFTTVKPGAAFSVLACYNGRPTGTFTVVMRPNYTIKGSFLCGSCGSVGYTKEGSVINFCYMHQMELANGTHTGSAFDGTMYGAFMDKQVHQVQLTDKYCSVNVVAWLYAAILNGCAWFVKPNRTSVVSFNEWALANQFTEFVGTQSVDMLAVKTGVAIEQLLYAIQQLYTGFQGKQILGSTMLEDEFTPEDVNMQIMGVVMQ

Row | Molecule | IC50 [1] [µM] | inhibition [2] | inhibition [3] [%] | also measured
1 | O=C(O)c1ccc(SSc2ccc(C(=O)O)cn2)nc1 | > 10 | 8% | – | –
2 | CN1CC[C@@]2(C)c3cc(O)ccc3N(C)[C@@H]12 | > 10 | 41% | – | –
3 | O=C1C(Cl)=C(N2CCOCC2)C(=O)N1c1ccc(Cl)c(Cl)c1 | > 10 | 0% | 7.24 | –
4 | CCC(=O)OCN1C(=O)C=CC1=O | > 10 | 0% | – | –
5 | O=C1C=CC(=O)C2=C1C1c3ccccc3C2c2ccccc21 | > 10 | 45% | – | –
6 | C=CC(=O)c1ccc2ccccc2c1 | > 10 | 26% | – | –
7 | c1ccc2sc(SNC3CCCCC3)nc2c1 | > 10 | 0% | – | –
8 | CCOC(=O)Cc1ccc(-c2ccccc2)cc1 | > 10 | 18% | -0.88 | –
9 | COc1cccc(C(=O)CCN[C@@H](C)[C@H](O)c2ccccc2)c1 | > 10 | 19% | – | –
10 | [O-][S+](c1ccccc1)c1ccc2nnnn2n1 (centres undefined) | 10.1 | – | – | –
11 | Nc1cc2c3ccccc3ccc2c2ccccc12 | > 10 | 3% | -3.88 | –
12 | O=C(/C=C/c1ccc(O)c2c1[C@@H](C(=O)O[C@H](Cc1ccc(O)c(O)c1)C(=O)O)[C@H](c1ccc(O)c(O)c1)O2)O[C@H](Cc1ccc(O)c(O)c1)C(=O)O | – | – | – | IC50 [4]: 3.42 µM
13 | Oc1c(I)cc(I)c(O)c1I | > 10 | 0% | – | –
14 | C[C@@H]1O[C@@H](Oc2c(-c3cc(O)c(O)c(O)c3)oc3cc(O)cc(O)c3c2=O)[C@@H](O)[C@H](O)[C@H]1O | – | – | – | IC50 [4]: 3.66 µM
15 | Cc1ccccc1N(C)C(=O)c1ccc([S+]([O-])c2nccs2)c([N+](=O)[O-])c1 (centres undefined) | > 10 | 7% | 0.13 | –
16 | C=C1C(=O)[C@]23[C@H](O)[C@H]1CC[C@@H]2[C@@]12CO[C@]3(O)C[C@@H]1C(C)(C)CC[C@@H]2O | – | – | – | IC50 [4]: 2.57 µM
17 | CCc1ccc(/C=C/C(=O)Nc2ccc(C(C)=O)cc2)o1 | – | – | – | IC50 [4]: 4.95 µM
18 | N#CSc1cc(SC#N)c(N)nc1N | 2.3 | – | 4.59 | –
19 | Oc1ccc2ccccc2c1SSc1c(O)ccc2ccccc12 | > 10 | 6% | – | –
20 | CN(C)CCNc1nc2cc(O)ccc2c2c1C(=O)c1ccccc1-2 | > 10 | 0% | – | –
21 | Oc1cc2c(cc1O)C(c1ccccc1)CNCC2 (centres undefined) | > 10 | 5% | 8.97 | –

Row | Molecule | IC50 [1] [µM] | inhibition [2] | inhibition [3] [%] | also measured
22 | O=[N+]([O-])c1cnc(Sc2nnc(O)n2-c2ccc3c(c2)OCCO3)s1 | 3.8 | – | – | –
23 | Nc1nnc(Sc2ncc([N+](=O)[O-])s2)s1 | > 10 | 45% | – | –
24 | CC[C@H](CO)Nc1nc(NCc2ccc(-c3ccccn3)cc2)c2ncn(C(C)C)c2n1 | > 10 | 4% | – | –
25 | CC(C)N(CCC(=O)c1ccc2ccccc2c1)Cc1ccccc1 | 8.1 | – | – | –
26 | CCCCCCNC(=O)n1cc(F)c(=O)[nH]c1=O | – | – | 14 | –
27 | CCCCn1c(NC(=O)c2cccs2)c(C#N)c2nc3ccccc3nc21 | – | – | -3.7 | –
28 | CCN1CCN(C(c2ccc(C(F)(F)F)cc2)c2ccc3cccnc3c2O)CC1 (centres undefined) | – | – | 3.72 | –
29 | COC(=O)CC[C@H](NC(=O)[C@H](CC(=O)OC)NC(=O)OCc1ccccc1)C(=O)N[C@H](C(=O)N[C@@H](CC(=O)OC)C(=O)CF)C(C)C | – | – | 11.2 | –
30 | Cc1cc(C)cc(N2C(=O)CC(Sc3nc[nH]n3)C2=O)c1 (centres undefined) | – | – | 2.86 | –
31 | Cc1ccc(C)c(-n2sc3cc(F)ccc3c2=O)c1 | – | – | -0.52 | –
32 | Cn1sc(=O)n(Cc2ccccc2)c1=O | – | – | 4.03 | –
33 | Nc1ccc(O)c2ncccc12 | – | – | 4.98 | –
34 | O=C(CC1Sc2ncnn2C1=O)Nc1ccc(Br)cc1 (centres undefined) | – | – | 8.42 | –
35 | O=C(CCl)c1ccccc1 | – | – | 7.75 | –
36 | O=[N+]([O-])c1ccc(Sc2cccc[n+]2[O-])c2nonc12 | – | – | 4.87 | –
37 | Oc1cc2c(cc1C(c1ccc(C(F)(F)F)cc1)N1CCOCC1)OCO2 (centres undefined) | – | – | 7.04 | –
38 | [O-][n+]1ccccc1S | – | – | 8.11 | inhibition ([2]; tested as the Zn salt or complex): 42%
39 | c1ccc2sc(SSc3nc4ccccc4s3)nc2c1 | – | – | 5.04 | –
40 | Sc1nc2ccccc2s1 [2-MERCAPTOBENZOTHIAZOLE] | > 10 | 0% | – | –
41 | C[C@@H]1O[C@@H](O[C@@H]2[C@@H](O)[C@H](OCCc3ccc(O)c(O)c3)O[C@H](CO)[C@H]2OC(=O)/C=C/c2ccc(O)c(O)c2)[C@H](O)[C@H](O)[C@H]1O [ACETOSIDE] | – | – | – | IC50 [4]: 4.54 µM
42 | CC(C)c1ccc2oc3nc(N)c(C(=O)O)cc3c(=O)c2c1 [AMLEXANOX] | > 10 | 0% | 4.03 | –

Row | Molecule | IC50 [1] [µM] | inhibition [2] | inhibition [3] [%] | also measured
43 | O=C1c2c(O)cc(O)cc2O[C@H](c2cc(O)c(O)c(O)c2)[C@H]1O [AMPELOPSIN] | > 10 | 18% | – | –
44 | O=c1cc(-c2ccc(O)cc2)oc2cc(O)cc(O)c12 [APIGENIN] | > 10 | 17% | – | –
45 | CN1CCc2cccc3c2[C@H]1Cc1ccc(O)c(O)c1-3 [APOMORPHINE HYDROCHLORIDE] | > 10 | 6% | – | –
46 | O=c1cc(-c2ccccc2)oc2cc(O)c(O)c(O)c12 [BAICALEIN] | > 10 | 47% | – | –
47 | CC(C)(C)c1ccc(S(=O)(=O)/C=C/C#N)cc1 [BAY-11-7085] | > 10 | 0% | – | –
48 | COc1nc2ccc(Br)cc2cc1[C@@H](c1ccccc1)[C@@](O)(CCN(C)C)c1cccc2ccccc12 [BEDAQUILINE] | – | – | – | IC50 [4]: 4.36 µM
49 | NC(CO)C(=O)NNCc1ccc(O)c(O)c1O (centres undefined) [BENSERAZIDE HYDROCHLORIDE] | > 10 | 9% | 0.39 | –
50 | CN(C)C(=S)SC(=S)N(C)C [BIS(DIMETHYLAMINETHIOCARBONYL)MONOSULFIDE] | > 10 | 0% | – | –
51 | O=[N+]([O-])C(Br)(CO)CO [BRONOPOL] | > 10 | 14% | – | –
52 | O=C1C2CC=CCC2C(=O)N1SC(Cl)(Cl)Cl (centres undefined) [CAPTAN] | > 10 | 5% | – | –
53 | CNC(=O)ON(C(C)=O)C(=O)NC [CARACEMIDE] | > 10 | 8% | – | –
54 | Oc1cc2c(cc1O)[C@H]1c3ccccc3CN[C@@H]1CC2 [DIHYDREXIDINE HYDROCHLORIDE] | > 10 | 19% | – | –
55 | O=c1c2ccccc2[se]n1-c1ccccc1 [EBSELEN] | > 10 | 14% | – | –
56 | O=C(O[C@@H]1Cc2c(O)cc(O)cc2O[C@@H]1c1cc(O)c(O)c(O)c1)c1cc(O)c(O)c(O)c1 [EPIGALOCATECHIN GALLATE] | > 10 | 10% and 16% | -0.5 | –
57 | C[n+]1c2cc(N)ccc2cc2ccc(N)cc21 [EUFLAVINE] | – | – | – | IC50 [4]: 4.98 µM
58 | O=C(c1cc(O)c(O)c(O)c1)c1ccc(O)c(O)c1O [EXIFONE] | > 10 | 0% | – | –
59 | Oc1cc2c(cc1O)[C@@H]1c3ccc(O)c(O)c3OC[C@]1(O)C2 [HEMATOXYLIN] | > 10 | 5% | – | –
60 | O=C(O)CCCCCCCCCCCCCCc1ccc(I)cc1 [IOCANLIDIC ACID] | > 10 | 0% | – | –
61 | O=C(c1ccc(/C=C/c2n[nH]c3ccccc23)cc1)N1CCNCC1 [KW-2449] | 3.6 | – | 3.6 | –
62 | C[C@H]1COc2c(N3CCN(C)CC3)c(F)cc3c(=O)c(C(=O)O)cn1c23 [LEVOFLOXACIN] | 7.6 | – | 1.29 | –
63 | O=c1c(O)c(-c2cc(O)c(O)c(O)c2)oc2cc(O)cc(O)c12 [MYRICETIN] | > 10 | 5% | 3.78 | –

Row | Molecule | IC50 [1] [µM] | inhibition [2] | inhibition [3] [%] | also measured
64 | CC(Cc1ccc(O)c(O)c1)C(C)Cc1ccc(O)c(O)c1 (centres undefined) [NORDIHYDROGUAIARETIC ACID] | > 10 | 0% | – | –
65 | Oc1cc(O)cc(/C=C/c2ccc(O)c(O)c2)c1 [PICEATANNOL] | > 10 | 24% | – | –
66 | CCC(C)SSc1ncc[nH]1 (centres undefined) [PX-12] | 7.6 | – | – | –
67 | [O-][n+]1ccccc1S [PYRITHIONE] | – | – | – | IC50 [4]: 0.05 µM
68 | COCCCOc1ccnc(C[S+]([O-])c2nc3ccccc3[nH]2)c1C (centres undefined) [RABEPRAZOLE SODIUM] | > 10 | 46% | – | –
69 | O=C(/C=C/c1ccc(O)c(O)c1)O[C@H](Cc1ccc(O)c(O)c1)C(=O)O [ROSMARINIC ACID] | > 10 | 19% | – | –
70 | C[n+]1cc2c3c(ccc2c2ccc4cc5c(cc4c21)OCO5)OCO3 [SANGUINARIUM CHLORIDE] | > 10 | 32% | – | –
71 | Nc1ccc(S(=O)(=O)Nc2ncccn2)cc1 [SULFADIAZINE, SILVER] | – | – | – | IC50 ([1]; tested as the Ag salt or complex): > 10 µM
72 | O=C(O)c1cc(O)c2c(c1)[C@H]([C@H]1c3cc(C(=O)O)cc(O)c3C(=O)c3c(O[C@@H]4O[C@H](CO)[C@@H](O)[C@H](O)[C@H]4O)cccc31)c1cccc(O[C@@H]3O[C@H](CO)[C@@H](O)[C@H](O)[C@H]3O)c1C2=O [Sennoside A] | > 10 | 42% | 2.66 | –
73 | COc1ccc2[nH]c([S+]([O-])Cc3ncc(C)c(OC)c3C)nc2n1 (centres undefined) [TENATOPRAZOLE] | > 10 | 0% | – | –
74 | CN(C)C(=S)SSC(=S)N(C)C [THIRAM] | > 10 | 48% | – | –
75 | O=c1sn(-c2cccc3ccccc23)c(=O)n1Cc1ccccc1 [TIDEGLUSIB] | > 10 | 22% and 0% | 30.7 | –
76 | COc1cc(C(=S)N2CCOCC2)ccc1O [VANITIOLIDE] | > 10 | 0% | – | –
77 | ACRIFLAVINE HYDROCHLORIDE | – | – | 22 | –
78 | Auranofin | – | 27% | 8.63 | –
79 | CISPLATIN | – | – | – | IC50 [4]: 3.82 µM
80 | MERBROMIN | – | 0% | 10.5 | –
81 | PHENYLMERCURIC ACETATE | – | 4% | 8.59 | –
82 | THIMEROSAL [listing 1 of 2 here] | > 10 | – | – | –
83 | THIMEROSAL [listing 2 of 2 here] | – | 46% | – | –
84 | hemin | – | 7% | 6.35 | –
